The values below come from PubChem BioAssay (NCI).

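Tested at 5 concentrations; 48 h exposure; 96-well plates; endpoints linearly interpolated, else capped at highest concentration. GI50: concentration for 50% inhibition of growth. TGI: concentration producing complete growth inhibition.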

Experiment in all cases: NCI-60 cell line screen, 48 h
The subject of assay [1] is CCRF-CEM leukemia.
Assay [2] has as its system A549 NSCLC.
The test system of assay [3] is SF-539 CNS.
Assay [4] relates to SN12C renal.
The test system of assay [5] is SNB-75 CNS.
The subject of assay [6] is OVCAR-8 ovarian.
The test system of assay [7] is RPMI-8226 leukemia.
In assay [8] the test system is NCI/ADR-RES ovarian.
Assay [9] has as its system EKVX NSCLC.
For assay [10], the system named is HL-60(TB) leukemia.

As to `CC1(C)CC(C#Cc2ccccc2)CC(C)(C)N1O`, the TGI in assay [1] is > 100 µM; in [2], 75.5 µM; in [3] it was 51.8 µM; in assay [4] it was 28.8 µM; in assay [5] it was 54.1 µM; in assay [6] it was 64 µM. The TGI in assay [7] was 69.1 µM; in [8], 73.8 µM; in [9], > 100 µM; in [10], 64.4 µM.
For `CN(C)c1ccc(Cc2cc3c(O)ccc(O)c3cc(Cc3ccc(N(C)C)cc3)c2=O)cc1`, the TGI in [1] is 7.36 µM; in [2] it was > 77.1 µM; in assay [3] it was 60.9 µM; in [4], > 73.2 µM; in assay [5], > 92.2 µM; in assay [6], 77.4 µM. Also, the TGI in assay [7] is > 84.9 µM; in assay [8], > 81.8 µM; in assay [9], 44.2 µM; in assay [10], > 37.6 µM.
Turning to `O=S1SC(=S)C2C=CC=CC21` (configuration not stated), the TGI in assay [1] is 39 µM; in assay [2], > 100 µM; in assay [3], > 100 µM; in assay [4] it was > 100 µM; in [5] it was > 100 µM; in assay [6], > 100 µM. Also, the TGI in assay [7], in assay [8], in assay [9] and in assay [10] was > 100 µM in each case.
On to `COC(=O)N1N=C(c2ccccc2)C1c1ccccc1` (configuration not stated), for which the TGI is > 100 µM in assay [1]; > 100 µM in [2]; > 100 µM in assay [3]; > 100 µM in assay [4]; > 100 µM in assay [5]; 94 µM in assay [6]. Besides, the TGI in assay [7] is > 100 µM; in [8], 69.2 µM; in assay [9] it was > 100 µM; in [10], > 100 µM.
With `CCOP(=O)(OCC)OC1CC(n2cc(C)c(=O)n(C)c2=O)OC1CO[Si](C)(C)C(C)(C)C` (configuration not stated), the TGI in assay [1], in assay [2], in assay [3], in [4], in [5] and in assay [6] was > 100 µM throughout. Besides, the TGI in [7] is > 100 µM; in assay [8] it was > 100 µM; in [9] it was 68.4 µM; in assay [10] it was 57.4 µM.
In the case of `CCOC(=O)c1sc2ncnc(N)c2c1C`, the TGI in assay [1], in assay [2], in [3], in [4], in [5] and in assay [6] was > 100 µM throughout. Further, the TGI in assay [7], in assay [8], in assay [9] and in assay [10] was > 100 µM each time.
For `O=C(O)CCCCCCCCC(=O)O`, the TGI in assay [1] was > 500 µM; in assay [2], > 500 µM; in assay [3], > 79.3 µM; in [4], > 500 µM; in [5] it was > 79.3 µM; in [6], > 500 µM. Further, the TGI was > 500 µM in assay [7], > 500 µM in [8], > 500 µM in assay [9] and > 281 µM in assay [10].
`COc1cc(C(O)c2ccc3c(c2)OCO3)cc(OC)c1OC` (configuration not stated): the TGI in assay [1], in assay [2], in assay [3], in [4], in assay [5] and in assay [6] was > 100 µM each time. Further, the TGI in assay [7], in assay [8], in assay [9] and in assay [10] was > 100 µM in each case.
Take `COc1ccc(OC)c2sc(N3C(=O)/C(=C/c4cccc([N+](=O)[O-])c4)N=C3c3ccccc3)nc12`: the TGI is 78.2 µM in [1]; > 100 µM in assay [2]; > 100 µM in assay [3]; > 100 µM in [4]; > 100 µM in assay [5]; > 100 µM in assay [6]. Moreover, the TGI in assay [7] was 61.2 µM; in assay [8] it was > 100 µM; in [9], > 100 µM; in assay [10], 59.4 µM.
Take `C(=C\c1ccccc1)/COc1ccccc1C(N1CCOCC1)n1nc2ccccc2n1` (configuration not stated): the TGI in assay [1] was 6.14 µM; in assay [2], > 89.2 µM; in assay [3], 6.62 µM; in assay [4] it was 24.1 µM; in assay [5], 16.9 µM; in [6], 14 µM. For the same compound, the TGI amounted to 12.2 µM in assay [7], 22.6 µM in assay [8], 49.6 µM in assay [9] and 1.45 µM in assay [10].
`Nc1ccc(-c2nn3c(COc4ccc(Cl)cc4)nnc3s2)cc1`: the GI50 in assay [1] was 10 µM; in assay [3], 34.5 µM. Further, the TGI in [1], in assay [2], in assay [3], in assay [4], in assay [5] and in [6] was > 100 µM throughout. The TGI in [7], in assay [8], in assay [9] and in assay [10] was > 100 µM each time.
With `CSc1nc2c(ncn2C2OC(CO)C(O)C(O)C2O)c(=O)[nH]1` (configuration not stated), the TGI in [1], in assay [2], in assay [3], in [4], in assay [5] and in [6] was > 100 µM each time. Besides, the TGI in [7], in assay [8], in assay [9] and in assay [10] was > 100 µM in each case.
